Assay results: patent US20150064697A1 (priority 2012, published 2015)

Tests used:
LLC cells [1] = assay: Dot-blot hybridization for GSAT RNA; conditions: 10 μM 48 hours
[2] = system: caspases 3 and 7 in ifnar−/− MEFs; assay: Caspase-3,7 activity assay (Ac-DEVD-AMC); conditions: 48 hours
CT26 cells [3] = assay: Dot-blot hybridization for GSAT RNA; conditions: CT26, 10 μM 48 hours
[4] = system: primary mouse hepatocytes (quiescent); assay: Viability of quiescent primary hepatocytes (methylene blue); assay type: cell-based; conditions: p53-wt and null hepatocytes, 5 days
[5] = target: DNA methyltransferase I (DNMT1) (Mus musculus, UniProt P13864); assay: Western blot of DNMT1 protein level; assay type: cell-based; conditions: both p53-WT and p53-null cells, 48 hours
LLC cells [6] = assay: Cell viability assay (methylene blue), cytotoxicity of 5-aza-dC; assay type: cell-based, mouse; conditions: 5 days treatment
CT26 cells [7] = assay: as above; assay type: cell-based, mouse; conditions: 5 days treatment
SCC-VII cells [8] = assay: as above; assay type: cell-based, mouse; conditions: 5 days treatment
LLC cells [9] = assay: RT-PCR of IFNβ1, IRF7 and CXCL10 mRNA; conditions: 10 μM 48 hours
SCC-VII cells [10] = assay: Dot-blot hybridization for GSAT RNA; conditions: 10 μM 48 hours
SCC-VII cells [11] = assay: RT-PCR of IFNβ1, IRF7 and CXCL10 mRNA; conditions: 10 μM 48 hours

Chain of DNA methyltransferase I (DNMT1) (P13864 whole entry): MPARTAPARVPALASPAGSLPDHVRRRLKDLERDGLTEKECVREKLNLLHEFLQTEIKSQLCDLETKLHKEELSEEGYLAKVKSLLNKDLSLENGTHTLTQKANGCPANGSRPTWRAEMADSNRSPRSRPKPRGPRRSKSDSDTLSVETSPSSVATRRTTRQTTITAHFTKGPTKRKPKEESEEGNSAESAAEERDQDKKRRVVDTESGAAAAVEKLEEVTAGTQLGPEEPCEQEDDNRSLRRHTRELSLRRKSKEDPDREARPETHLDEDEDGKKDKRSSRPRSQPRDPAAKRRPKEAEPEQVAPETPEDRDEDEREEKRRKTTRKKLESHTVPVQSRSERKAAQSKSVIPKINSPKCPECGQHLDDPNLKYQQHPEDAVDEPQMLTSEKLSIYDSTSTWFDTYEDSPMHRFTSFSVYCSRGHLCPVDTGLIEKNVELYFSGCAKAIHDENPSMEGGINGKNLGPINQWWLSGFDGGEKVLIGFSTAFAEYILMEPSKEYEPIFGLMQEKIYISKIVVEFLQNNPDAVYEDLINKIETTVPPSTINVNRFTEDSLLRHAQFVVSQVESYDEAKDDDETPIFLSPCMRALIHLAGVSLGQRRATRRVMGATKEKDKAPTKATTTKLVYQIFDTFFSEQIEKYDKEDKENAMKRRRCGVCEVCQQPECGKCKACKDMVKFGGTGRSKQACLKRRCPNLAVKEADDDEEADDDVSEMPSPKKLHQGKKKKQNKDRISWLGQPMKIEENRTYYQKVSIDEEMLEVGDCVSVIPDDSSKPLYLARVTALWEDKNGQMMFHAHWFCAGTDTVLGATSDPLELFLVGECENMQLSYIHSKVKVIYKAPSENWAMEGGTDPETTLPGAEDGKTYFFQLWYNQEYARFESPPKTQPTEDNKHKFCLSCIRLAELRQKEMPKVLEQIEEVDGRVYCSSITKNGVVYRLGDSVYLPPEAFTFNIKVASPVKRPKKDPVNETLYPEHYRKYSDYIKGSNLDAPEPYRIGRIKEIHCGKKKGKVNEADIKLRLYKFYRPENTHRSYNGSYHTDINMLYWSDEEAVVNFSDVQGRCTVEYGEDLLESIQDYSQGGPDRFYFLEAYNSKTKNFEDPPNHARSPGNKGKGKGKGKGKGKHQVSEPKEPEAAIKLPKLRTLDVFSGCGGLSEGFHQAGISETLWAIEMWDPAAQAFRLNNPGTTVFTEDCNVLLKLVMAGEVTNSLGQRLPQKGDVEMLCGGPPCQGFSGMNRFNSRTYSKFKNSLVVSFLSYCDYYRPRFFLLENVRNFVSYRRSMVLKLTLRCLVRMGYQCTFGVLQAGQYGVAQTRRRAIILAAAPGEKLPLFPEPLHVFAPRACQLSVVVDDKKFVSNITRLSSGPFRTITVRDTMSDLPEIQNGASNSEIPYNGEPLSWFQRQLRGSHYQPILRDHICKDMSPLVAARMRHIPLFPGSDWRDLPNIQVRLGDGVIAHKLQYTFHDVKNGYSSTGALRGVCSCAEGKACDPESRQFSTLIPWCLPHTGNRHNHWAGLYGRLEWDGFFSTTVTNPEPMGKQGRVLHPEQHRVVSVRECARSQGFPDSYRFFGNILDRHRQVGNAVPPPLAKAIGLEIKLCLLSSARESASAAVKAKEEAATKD

Nc1ncn([C@H]2C[C@H](O)[C@@H](CO)O2)c(=O)n1 [5-aza-dC, 5-aza-2′-deoxycytidine]
expression of GSAT RNA upon treatment (LLC cells [1]): undetectable
caspase activation [2]: No signs of caspase activation
expression of GSAT RNA upon treatment (CT26 cells [3]): intermediate
sensitivity of quiescent cells to cultivation with 5-aza-dC [4]: resistant
free DNMT1 protein after treatment [5]: complete depletion
LD50 (LLC cells [6]): 14 µM
LD50 (CT26 cells [7]): 2 µM
LD50 (SCC-VII cells [8]): 0.125 µM
mRNAs encoding IFNβ1, IRF7 and CXCL10 (LLC cells [9]): none of these IFN response-associated transcripts was detected
expression of GSAT RNA upon treatment (SCC-VII cells [10]): strong
mRNAs encoding IFNβ1, IRF7 and CXCL10 (SCC-VII cells [11]): strong upregulation
